Consider 14 compounds from US10617706B2, “Compounds for cancer chemotherapeutic sensitization” (Regents of the University of Minnesota, priority 2018, dated 2020).

Each structure is given as a SMILES string.

Sequence of hTdp2 (Rec) (O95551 113-362): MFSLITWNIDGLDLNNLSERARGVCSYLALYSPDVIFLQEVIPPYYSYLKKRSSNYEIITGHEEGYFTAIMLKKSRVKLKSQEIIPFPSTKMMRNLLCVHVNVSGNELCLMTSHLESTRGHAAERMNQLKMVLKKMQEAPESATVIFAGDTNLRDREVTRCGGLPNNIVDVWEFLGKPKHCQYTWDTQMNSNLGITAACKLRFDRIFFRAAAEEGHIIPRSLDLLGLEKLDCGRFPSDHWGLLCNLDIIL

The first data set has as its target hTdp2 (Rec) (Homo sapiens (Human), UniProt O95551). The experiment in a line: SUMO hTDP2cat fluorescence-based biochemical assay.
Conditions: not given
The method, then:
Biochemical Potency. The enzymatic activity of TDP2 was measured with a SUMO hTDP2cat fluorescence-based biochemical assay. […] After a pre-incubation period of 10 minutes, 5 μL of substrate 5′-(6-FAM-NHS)(5′-tyrosine)GATCT(3′-BHQ-1)-3′ (1 μM, final concentration of 0.25 μM) was added, and the reaction was allowed to proceed at 25° C. for 60 minutes. The fluorescence was measured, and the data was processed as described previously for 14M_zTDP2.
The IC50 is the concentration that gives 50% inhibition. `N#Cc1ccc2cc3c(=O)[nH]c(=O)nc-3n(-c3ccc(Oc4ccc(NC(=O)Oc5ccccc5)cc4)cc3)c2c1` [Example 118]: the IC50 was determined as 795 ± 40 nM. Same read-out and setting: in the case of `N#Cc1ccc2cc3c(=O)n(-c4cccc(NC(=O)Oc5ccccc5)c4)c(=O)nc-3n(-c3ccc(O)cc3)c2c1` [Example 132, Phenyl-(3-(8-cyano-10-(4-hydroxyphenyl)-2,4-dioxo-4,10-dihydropyrimido[4,5-b]quinolin-3(2H)-yl)phenyl)carbamate] it was 119 ± 4 nM. Same read-out and setting: in the case of `N#Cc1ccc2cc3c(=O)n(-c4ccc(NC(=O)Oc5ccccc5)cc4)c(=O)nc-3n(-c3ccc(O)cc3)c2c1` [Example 133, Phenyl-(4-(8-cyano-10-(4-hydroxyphenyl)-2,4-dioxo-4,10-dihydropyrimido[4,5-b]quinolin-3(2H)-yl)phenyl)carbamate] it was 59 ± 4 nM. The same measure, in the same setting: in the case of `N#Cc1ccc2cc3c(=O)n(-c4cccc(NP(=O)(Oc5ccccc5)Oc5ccccc5)c4)c(=O)nc-3n(-c3ccc(O)cc3)c2c1` [Example 134, Diphenyl-(3-(8-cyano-10-(4-hydroxyphenyl)-2,4-dioxo-4,10-dihydropyrimido[4,5-b]quinolin-3(2H)-yl)phenyl)phosphoramidate] it was 277 ± 11 nM; in that of `N#Cc1ccc2cc3c(=O)n(-c4ccc(NP(=O)(Oc5ccccc5)Oc5ccccc5)cc4)c(=O)nc-3n(-c3ccc(O)cc3)c2c1` [Example 135, Diphenyl-(4-(8-cyano-10-(4-hydroxyphenyl)-2,4-dioxo-4,10-dihydropyrimido[4,5-b]quinolin-3(2H)-yl)phenyl)phosphoramidate], 185 ± 9 nM.

Compound `N#Cc1ccc2cc3c(=O)n(-c4ccc(CNP(=O)(Oc5ccccc5)Oc5ccccc5)cc4)c(=O)nc-3n(-c3ccc(O)cc3)c2c1` [Example 136, Diphenyl-(4-(8-cyano-10-(4-hydroxyphenyl)-2,4-dioxo-4,10-dihydropyrimido[4,5-b]quinolin-3(2H)-yl)benzyl)phosphoramidate] returned an IC50 of 119 ± 3 nM.

The same data set, now with this note: SUMO hTDP2cat 3.13 pM, substrate 0.25 μM, 25° C., 60 minutes; read-out: hTdp2 (Rec) IC50.
Regarding `CC1(C)OB(c2cccc(Oc3ccc(-n4c5nc(=O)[nH]c(=O)c-5cc5ccc(C#N)cc54)cc3)c2)OC1(C)C` [Example 119, 2,4-Dioxo-10-(4-(3-(4,4,5,5-tetramethyl-1,3,2-dioxaborolan-2-yl)phenoxy)phenyl)-2,3,4,10-tetrahydropyrimido[4,5-b]quinoline-8-carbonitrile], the IC50 is 8.28 ± 0.44 nM. The same measure, in the same setting: the same measure for `N#Cc1ccc2cc3c(=O)[nH]c(=O)nc-3n(-c3ccc(Oc4cccc(B(O)O)c4)cc3)c2c1` [Example 120, (3-(4-(8-Cyano-2,4-dioxo-3,4-dihydropyrimido[4,5-b]quinolin-10(2H)-yl)phenoxy)phenyl) boronic acid]: 5.01 ± 0.69 nM; for `CC1(C)OB(c2cccc(COc3ccc(-n4c5nc(=O)[nH]c(=O)c-5cc5ccc(C#N)cc54)cc3)c2)OC1(C)C` [Example 121, 2,4-Dioxo-10-(4-((3-(4,4,5,5-tetramethyl-1,3,2-dioxaborolan-2-yl)benzyl)oxy)phenyl)-2,3,4,10-tetrahydropyrimido[4,5-b]quinoline-8-carbonitrile]: 47 ± 4 nM.

Consider `CC1(C)OB(c2ccc(COc3ccc(-n4c5nc(=O)[nH]c(=O)c-5cc5ccc(C#N)cc54)cc3)cc2)OC1(C)C` [Example 122, 2,4-Dioxo-10-(4-((4-(4,4,5,5-tetramethyl-1,3,2-dioxaborolan-2-yl)benzyl)oxy)phenyl)-2,3,41,10-tetrahydropyrimido[4,5-b]quinoline-8-carbonitrile], for which the IC50 was 359 ± 32 nM. The same measure, in the same setting: the same measure for `N#Cc1ccc2cc3c(=O)[nH]c(=O)nc-3n(-c3ccc(OCc4cccc(B(O)O)c4)cc3)c2c1` [Example 123, (3-((4-(8-Cyano-2,4-dioxo-3,4-dihydropyrimido [4,5-b]quinolin-10(2H)-yl)phenoxy)methyl)phenyl) boronic acid]: 39 ± 3 nM. The same measure, in the same setting: the same measure for `N#Cc1ccc2cc3c(=O)[nH]c(=O)nc-3n(-c3ccc(OCc4ccc(B(O)O)cc4)cc3)c2c1` [Example 124, (4-((4-(8-Cyano-2,4-dioxo-3,4-dihydropyrimido [4,5-b]quinolin-10(2H)-yl)phenoxy)methyl)phenyl) boronic acid]: 239 ± 18 nM. The same measure, in the same setting: the same measure for `O=c1nc2n(-c3ccc(Oc4cccc(B(O)O)c4)cc3)c3cc(Cl)ccc3cc-2c(=O)[nH]1` [Example 143, (3-(4-(8-Chloro-2,4-dioxo-3,4-dihydropyrimido[4,5-b]quinolin-10(2H)yl)phenoxy)phenyl) boronic acid]: 3.85 ± 0.37 nM.

The subject of a further data set is DT40 lymphoma cells.
Assay: not given
Conditions: in cancer cells, at 50 μM of compound 5-I; sensitizing effect; cited from earlier work.
Take `N#Cc1ccc2cc3c(=O)[nH]c(=O)nc-3n(-c3cccc(-c4nnn[nH]4)c3)c2c1` [compound 5-I]: the “maximal efficacy, cell viability” value is given as “around 10%”.
